This note sets out measurements from EPA's ToxValDB 9.5.

Several values for one entry are separate records, joined by “and”; a condition that tells them apart may be missing. Identical values can stand only once.

In data set [1] the test system is Rattus norvegicus. The conditions noted are these: short-term.
Data set [2] has as its system Rattus norvegicus.
Data set [3] concerns Rattus norvegicus. To be noted: oral, gavage, M, Sprague-Dawley.
Data set [4] deals with Rattus norvegicus. The conditions noted are these: subchronic, duration: 13 weeks, dermal, non-occlusive, Sprague-Dawley.
Setting [5] is: duration: 28 days, oral, gavage, F, Crl:CD(SD), Kidney: Kidney, Right, Pelvis, Dilation + Liver: Liver Weight, Relative + Liver: Liver, Large.
The mark [6] stands for this setting: duration: 28 days, oral, gavage, F, Crl:CD(SD), Whole Body: Clinical Observations.
Where [7] appears, read: duration: 28 days, oral, gavage, M, Crl:CD(SD), Liver: Hepatocellular Hypertrophy + Liver: Liver Weight, Relative + Liver: Liver, Large.
Setting [8] is: Hershberger, duration: 10 days, oral, gavage, Sprague-Dawley, active + Negative + Antiandrogenic + anti-androgenic + negative.
[9] abbreviates: uterotrophic, duration: 3 days, injection, subcutaneous, Active.
[10] abbreviates: uterotrophic, duration: 36 days, injection, subcutaneous, Active.
Where [11] appears, read: duration: 3 days, injection, subcutaneous, F, Crj:CD, uterus: uterine dry weight (absolute) + uterus: uterine dry weight (relative) + uterus: uterine wet weight (absolute) + uterus: uterine wet ….
Setting [12] is: duration: 28 days, oral, gavage, F, Crl:CD(SD), A/G ratio + phospholipid + triglyceride.
Setting [13] is: duration: 28 days, oral, gavage, F, Crl:CD(SD), cholinesterase + inorganic phosphorus + kidney: abnormal kidney histopathological changes.
Where [14] appears, read: duration: 28 days, oral, gavage, F, Crl:CD(SD), uterus: uterine dry weight (absolute) + uterus: uterine dry weight (relative) + uterus: uterine wet weight (absolute) + uterus: uterine wet ….
[15] abbreviates: duration: 28 days, oral, gavage, M, Crl:CD(SD), alanine aminotransferase + body weight + brain: brain weight + gamma-glutamyl transpeptidase + heart: heart weight + hematocrit + kidney: ….
Setting [16] is: duration: 28 days, oral, gavage, M, Crl:CD(SD), heart: heart weight.

Broadly, the NOAEL is the highest tested level that showed no adverse finding. In general, LOAEL refers to the lowest tested level that showed an adverse finding.

Turning to `CCC(F)(F)C(F)(F)C(F)(F)C(F)(F)C(F)(F)C(F)(F)F` [1-(Perfluorohexyl)ethane], the NOAEL in the data set on Rattus norvegicus [1] (duration: 28 days, oral, gavage, F, Crl:CD(SD), Adrenal: Adrenal Gland Histopathology + Adrenal: Adrenal Gland Weight, Absolute + Adrenal: Adrenal Gland Weight, Relative + Bladder: Urinary…) was 200 mg/kg-day; with Rattus norvegicus [1] (setting [5]) it was 40 mg/kg-day; in the data set with Rattus norvegicus [1] (setting [6]), 8 mg/kg-day; with Rattus norvegicus [1] (duration: 28 days, oral, gavage, M, Crl:CD(SD), Adrenal: Adrenal Gland Histopathology + Adrenal: Adrenal Gland Weight, Absolute + Adrenal: Adrenal Gland Weight, Relative + Blood: Activated…), 200 mg/kg-day; with Rattus norvegicus [1] (setting [7]) it was 40 mg/kg-day. In addition, the LOAEL in the data set on Rattus norvegicus [1] (setting [5]) is 200 mg/kg-day; in the data set on Rattus norvegicus [1] (setting [6]) it was 40 mg/kg-day; in the data set with Rattus norvegicus [1] (setting [7]) it was 200 mg/kg-day.
For the molecule `N#Cc1c(Cl)cccc1Cl` [2,6-Dichlorobenzonitrile], in the data set with Rattus norvegicus [2] (setting [8]), the LOEL turned out to be 150 mg/kg-day and the NOEL worked out at 60 mg/kg-day.
Regarding `C[C@]12CCC(=O)C=C1CC[C@@H]1[C@@H]2CC[C@]2(C)C(=O)CC[C@@H]12` [4-Androstene-3,17-dione], the LEL in the data set on Rattus norvegicus [2] (setting [9]) amounted to 5 mg/day; in the data set with Rattus norvegicus [2] (uterotrophic, duration: 7 days, injection, subcutaneous, Active) it was 5 mg/kg-day; in the data set with Rattus norvegicus [2] (uterotrophic, duration: 14 days, injection, subcutaneous, Active), 2 mg/day; in the data set on Rattus norvegicus [2] (setting [10]) it was 1 mg/kg-day.
For the molecule `CCCCCCCCCCCCc1ccc(O)cc1` [4-Dodecylphenol], in the data set on Rattus norvegicus [2] (setting [9]), the LEL was 40 mg/kg-day and 39.7 mg/kg-day.
For `Cc1c(O)ccc2c1CC[C@@H]1[C@@H]2CC[C@]2(C)[C@@H](O)CC[C@@H]12` [4-Methylestradiol], in the data set with Rattus norvegicus [2] (setting [9]), the LEL came out at 0.005 mg/day.
Regarding `C#C[C@@]1(OC(=O)CC)C[C@@H]2CC[C@@H]3[C@H](CC[C@@]4(C)[C@H]3CC[C@]4(C#C)OC(=O)CC)[C@@]2(C)C1` [Anordrin], the LEL in the data set on Rattus norvegicus [2] (uterotrophic, duration: 3 days, oral, Active) was 0.0025 mg/day.
On to `Oc1ccc(C2(c3ccc(O)cc3)CCCCC2)cc1` [Bisphenol Z], for which the LOEL in the data set on Rattus norvegicus [1] (setting [11]) worked out at 30 mg/kg-day; in the data set with Rattus norvegicus [1] (setting [12]), 100 mg/kg-day; with Rattus norvegicus [1] (setting [13]), 300 mg/kg-day; in the data set on Rattus norvegicus [1] (setting [14]), 30 mg/kg-day; with Rattus norvegicus [1] (setting [15]), 300 mg/kg-day; in the data set with Rattus norvegicus [1] (setting [16]), 100 mg/kg-day. Further, the LOEL in the data set with Rattus norvegicus [1] (duration: 28 days, oral, gavage, M, Crl:CD(SD), thymus: serum T4) worked out at 30 mg/kg-day. The NOEL was 6 mg/kg-day in the data set on Rattus norvegicus [1] (setting [11]); 30 mg/kg-day with Rattus norvegicus [1] (setting [12]); 100 mg/kg-day in the data set on Rattus norvegicus [1] (setting [13]); 6 mg/kg-day in the data set on Rattus norvegicus [1] (setting [14]); 100 mg/kg-day in the data set on Rattus norvegicus [1] (setting [15]); 30 mg/kg-day in the data set on Rattus norvegicus [1] (setting [16]). Besides, the NOEL in the data set on Rattus norvegicus [3] (subchronic, Clinical Observation: Diarrhea Soft feces + Body Weight Changes: decrease, R + Food Consumption: decrease + Urinalysis: Urine volume …) amounted to 20 mg/kg-day.
As to `CCCCCCCCCCCCCCCCCC(=O)[O-].CCCCCCCCCCCCCCCCCC(=O)[O-].[Ca+2]` [Calcium stearate], the NOAEL in the data set with Rattus norvegicus [3] (short-term, duration: 28 days, Urinalysis: Bilirubin increase + Absolute Organ Weight: Spleen increase) was 2000 mg/kg-day; in the data set with Rattus norvegicus [4] (F), 2000 mg/kg-day; with Rattus norvegicus [4] (M), 2000 mg/kg-day.
In the case of `C[C@]12CC[C@H](O)CC1=CC[C@@H]1[C@@H]2CC[C@]2(C)C(=O)CC[C@@H]12` [Dehydroepiandrosterone], the LEL in the data set with Rattus norvegicus [2] (setting [9]) was 6 mg; in the data set with Rattus norvegicus [2] (uterotrophic, duration: 21 days, Active) it was 1 mg/day; with Rattus norvegicus [2] (uterotrophic, duration: 28 days, oral, diet, Active), 2000 mg/kg-day; with Rattus norvegicus [2] (setting [10]), 30 mg/kg-day. For the same molecule, the “LEL (mg/100 g BW)” value with Rattus norvegicus [2] (setting [9]) was 0.6.
